# Results: PubChem BioAssay AID192 (DTP/NCI, 2004)
# Values joined by “and” are separate entries in the source; they are usually repeats but may differ in a detail not shown here. Identical values can stand only once. Inconclusive results and toxic doses are left out. Peptide text beside a SMILES is read from it.
# Test system: BDF1 mice, B16 melanoma ip, median survival T/C
# Test: NCI In Vivo Anticancer Drug Screen. Data for tumor model B16 Melanoma (intraperitoneal) in B6D2F1 (BDF1) mice
# Settings: endpoint: median survival time, higher = longer survival
# Method in brief: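 Antitumor activity is assessed in mice bearing a transplanted tumor, with survival or tumor size compared against vehicle-dosed controls and expressed as T/C.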
# [1] = dose: 50.0 mg/kg/injection, schedule: Q01DX009 (ip), vehicle: Klucel (hydroxypropylcellulose) (HPC)
# [2] = dose: 100.0 mg/kg/injection, schedule: Q01DX009 (ip), vehicle: Klucel (hydroxypropylcellulose) (HPC)
# [3] = dose: 200.0 mg/kg/injection, schedule: Q01DX009 (ip), vehicle: Klucel (hydroxypropylcellulose) (HPC)
# [4] = dose: 6.25 mg/kg/injection, schedule: Q01DX009 (ip), vehicle: saline
# [5] = dose: 12.5 mg/kg/injection, schedule: Q01DX009 (ip), vehicle: saline
# [6] = dose: 25.0 mg/kg/injection, schedule: Q01DX009 (ip), vehicle: saline
# [7] = dose: 50.0 mg/kg/injection, schedule: Q01DX009 (ip), vehicle: saline
# [8] = dose: 100.0 mg/kg/injection, schedule: Q01DX009 (ip), vehicle: saline with Tween-80
# [9] = dose: 200.0 mg/kg/injection, schedule: Q01DX009 (ip), vehicle: saline with Tween-80
# [10] = dose: 400.0 mg/kg/injection, schedule: Q01DX009 (ip), vehicle: saline with Tween-80
# [11] = dose: 50.0 mg/kg/injection, schedule: Q01DX009 (ip), vehicle: saline with Tween-80
# [12] = dose: 12.5 mg/kg/injection, schedule: Q01DX009 (ip), vehicle: Klucel (hydroxypropylcellulose) (HPC)
# [13] = dose: 100.0 mg/kg/injection, schedule: Q01DX009 (ip), vehicle: other
# [14] = dose: 200.0 mg/kg/injection, schedule: Q01DX009 (ip), vehicle: other
# [15] = dose: 200.0 mg/kg/injection, schedule: Q04DX003 (ip), vehicle: Klucel (hydroxypropylcellulose) (HPC)
# [16] = dose: 400.0 mg/kg/injection, schedule: Q01DX009 (ip), vehicle: Klucel (hydroxypropylcellulose) (HPC)
# [17] = dose: 400.0 mg/kg/injection, schedule: Q04DX003 (ip), vehicle: Klucel (hydroxypropylcellulose) (HPC)
# [18] = dose: 1.0 mg/kg/injection, schedule: Q01DX009 (ip), vehicle: saline
# [19] = dose: 2.0 mg/kg/injection, schedule: Q01DX009 (ip), vehicle: saline
# [20] = dose: 4.0 mg/kg/injection, schedule: Q01DX009 (ip), vehicle: saline
# [21] = dose: 8.0 mg/kg/injection, schedule: Q01DX009 (ip), vehicle: saline
# [22] = dose: 16.0 mg/kg/injection, schedule: Q01DX009 (ip), vehicle: saline
# [23] = dose: 32.0 mg/kg/injection, schedule: Q01DX009 (ip), vehicle: saline
# [24] = dose: 6.25 mg/kg/injection, schedule: Q01DX009 (ip), vehicle: saline with Tween-80
# [25] = dose: 12.5 mg/kg/injection, schedule: Q01DX009 (ip), vehicle: saline with Tween-80
# [26] = dose: 25.0 mg/kg/injection, schedule: Q01DX009 (ip), vehicle: saline with Tween-80
compound,measurement,setting,value
COc1ccc2c(c1)N(CCCN(C)C)c1ccccc1S2,T/C,"dose: 2.34 mg/kg/injection, schedule: Q01DX009 (ip), vehicle: saline",102 % of control
same,T/C,"dose: 4.68 mg/kg/injection, schedule: Q01DX009 (ip), vehicle: saline",110 % of control
same,T/C,"dose: 18.75 mg/kg/injection, schedule: Q01DX009 (ip), vehicle: saline",102 % of control
same,T/C,"dose: 37.5 mg/kg/injection, schedule: Q01DX009 (ip), vehicle: saline",110 % of control
Cc1ccc(OS(=O)(=O)c2ccc([N+](=O)[O-])cc2)cc1,T/C,[1],97 % of control
same,T/C,[2],97 % of control
same,T/C,[3],111 % of control
C[C@@H]1CC[C@]2(C)CC[C@]3(C)C(=CC[C@@H]4[C@@]5(C)CC[C@@H](OC(=O)c6ccc(O)cc6)C(C)(C)[C@@H]5C[C@H](O)[C@]43C)[C@@H]2[C@H]1C(=O)O,T/C,"dose: 0.02 mg/kg/injection, schedule: Q01DX009 (ip), vehicle: saline with Tween-80",96 % of control
same,T/C,"dose: 0.05 mg/kg/injection, schedule: Q01DX009 (ip), vehicle: saline with Tween-80",91 % of control
same,T/C,"dose: 0.1 mg/kg/injection, schedule: Q01DX009 (ip), vehicle: saline with Tween-80",88 % of control
Cc1ccc(NC(=O)c2ccc(Cl)cc2)c(C)c1,T/C,"dose: 75.0 mg/kg/injection, schedule: Q01DX009 (ip), vehicle: Klucel (hydroxypropylcellulose) (HPC)",93 % of control
same,T/C,"dose: 150.0 mg/kg/injection, schedule: Q01DX009 (ip), vehicle: Klucel (hydroxypropylcellulose) (HPC)",91 % of control
same,T/C,"dose: 300.0 mg/kg/injection, schedule: Q01DX009 (ip), vehicle: Klucel (hydroxypropylcellulose) (HPC)",88 % of control
CCCCNCC1COc2cccc(OCC)c2O1 (configuration not stated),T/C,"dose: 3.12 mg/kg/injection, schedule: Q01DX009 (ip), vehicle: saline",120 % of control
same,T/C,[4],95 % of control
same,T/C,[5],97 % of control
same,T/C,[6],105 % of control
same,T/C,[7],100 % of control
CCc1cc(C)cc(OC(=O)Nc2cccc(Cl)c2)c1,T/C,[8],90 % of control
same,T/C,[9],92 % of control
same,T/C,[10],86 % of control
CCCCCCCCCCCCCCCCCCNC(=O)CCl,T/C,[1],93 % of control
same,T/C,[2],93 % of control
same,T/C,[3],86 % of control
CC(C)CC(NC(=O)C(C)NC(=O)CN)C(=O)O (stereo not drawn) (H-Gly-Ala-Leu-OH; configuration not given here),T/C,[11],97 % of control
same,T/C,[8],96 % of control
same,T/C,[9],98 % of control
same,T/C,[10],103 % of control
Cc1cc(C)c(OC2=C(c3c(C)cc(C)cc3C)C(=O)c3ccccc32)c(C)c1,T/C,[11],104 % of control
same,T/C,[8],100 % of control
same,T/C,[9],98 % of control
same,T/C,[10],91 % of control
CCCCCCCCCCCCCCCCCC(=O)NN,T/C,[12],103 % of control
same,T/C,"dose: 25.0 mg/kg/injection, schedule: Q01DX009 (ip), vehicle: Klucel (hydroxypropylcellulose) (HPC)",98 % of control
same,T/C,[1],105 % of control
same,T/C,"dose: 100.0 mg/kg/injection, schedule: Q01DX009 (ip), vehicle: carboxymethylcellulose (CMC)",94 % of control
CCCCNC(=S)S,T/C,[13],90 % of control
same,T/C,[14],94 % of control
COC(=O)/C=C/c1ccc(OC)cc1,T/C,[2],97 % of control
same,T/C,[3],97 % of control
same,T/C,[15],86 % of control
same,T/C,[16],97 % of control
same,T/C,[17],100 % of control
CN(C)CCCN1c2ccccc2Sc2ccc(Cl)cc21,T/C,[18],101 % of control
same,T/C,[19],111 % of control and 93 % of control
same,T/C,[20],110 % of control and 100 % of control
same,T/C,[21],92 % of control and 102 % of control
same,T/C,"dose: 12.5 mg/kg/injection, schedule: Q01DX009 (ip), vehicle: alkali diluted with saline",100 % of control
same,T/C,"dose: 12.5 mg/kg/injection, schedule: Q01DX009 (ip), vehicle: saline sonified",97 % of control
same,T/C,[22],94 % of control
same,T/C,"dose: 25.0 mg/kg/injection, schedule: Q01DX009 (ip), vehicle: alkali diluted with saline",92 % of control
same,T/C,"dose: 25.0 mg/kg/injection, schedule: Q01DX009 (ip), vehicle: saline sonified",90 % of control
same,T/C,[23],92 % of control
same,T/C,"dose: 64.0 mg/kg/injection, schedule: Q01DX009 (ip), vehicle: saline",87 % of control
Nc1nncs1,T/C,[21],104 % of control
same,T/C,"dose: 16.0 mg/kg/injection, schedule: Q01DX009 (ip), vehicle: other",111 % of control
same,T/C,[22],99 % of control
same,T/C,"dose: 32.0 mg/kg/injection, schedule: Q01DX009 (ip), vehicle: other",106 % of control
same,T/C,[23],105 % of control
same,T/C,"dose: 64.0 mg/kg/injection, schedule: Q01DX009 (ip), vehicle: other",104 % of control
Cc1cc2c(cc1C)NC(=O)C(C)CN2 (configuration not stated),T/C,[2],90 % of control
same,T/C,[3],88 % of control
same,T/C,[16],87 % of control
CCc1ccccc1NC(=O)c1cccc(C(=O)Nc2ccccc2CC)c1,T/C,[1],102 % of control
same,T/C,[2],105 % of control
same,T/C,[3],102 % of control
S=C1SCN(C2CCCCC2)CN1C1CCCCC1,T/C,"dose: 100.0 mg/kg/injection, schedule: Q04DX003 (ip), vehicle: Klucel (hydroxypropylcellulose) (HPC)",93 % of control
same,T/C,[15],90 % of control
same,T/C,[17],86 % of control
CCOC(=O)C(O)C(C#N)c1ccccc1 (configuration not stated),T/C,[13],98 % of control
same,T/C,[14],99 % of control
same,T/C,"dose: 400.0 mg/kg/injection, schedule: Q01DX009 (ip), vehicle: other",107 % of control
CC[C@](O)(C(=O)O)c1cc2n(c(=O)c1CO)Cc1cc3ccccc3nc1-2,T/C,"dose: 0.79 mg/kg/injection, schedule: Q01DX009 (ip), vehicle: other",117 % of control
same,T/C,[18],115 % of control and 121 % of control
same,T/C,[19],117 % of control
same,T/C,[20],150 % of control
CN(C)C1CCCCC1,T/C,[12],91 % of control
same,T/C,"dose: 12.5 mg/kg/injection, schedule: Q04DX003 (ip), vehicle: Klucel (hydroxypropylcellulose) (HPC)",116 % of control
same,T/C,"dose: 25.0 mg/kg/injection, schedule: Q04DX003 (ip), vehicle: Klucel (hydroxypropylcellulose) (HPC)",100 % of control
same,T/C,[1],100 % of control
same,T/C,"dose: 50.0 mg/kg/injection, schedule: Q04DX003 (ip), vehicle: Klucel (hydroxypropylcellulose) (HPC)",91 % of control
CN(C)CCN1c2ccccc2Sc2ccccc21,T/C,[4],110 % of control
same,T/C,[5],97 % of control
same,T/C,[6],92 % of control
same,T/C,[7],97 % of control
same,T/C,"dose: 100.0 mg/kg/injection, schedule: Q01DX009 (ip), vehicle: saline",92 % of control
CCCCCCCCCCCC(=O)[O][Sn]([CH2]c1ccccc1)([CH2]c1ccccc1)[CH2]c1ccccc1,T/C,"dose: 1.25 mg/kg/injection, schedule: Q04DX003 (ip), vehicle: other",107 % of control
same,T/C,"dose: 2.5 mg/kg/injection, schedule: Q04DX003 (ip), vehicle: other",105 % of control
same,T/C,"dose: 5.0 mg/kg/injection, schedule: Q04DX003 (ip), vehicle: other",95 % of control
O=C(O)c1ccccc1C(=O)O.[C-]#[O+].[C-]#[O+].[C-]#[O+].[C-]#[O+].[Rh].[Rh],T/C,[2],108 % of control
same,T/C,[3],100 % of control
same,T/C,[16],94 % of control
O=C1CCC(c2ccccc2)=NN1,T/C,[24],102 % of control
same,T/C,[25],102 % of control
same,T/C,[26],102 % of control
same,T/C,[11],89 % of control and 94 % of control
O=C(CCl)Nc1cc(C(F)(F)F)ccc1Cl,T/C,[24],103 % of control
same,T/C,[25],95 % of control
same,T/C,[26],93 % of control
Cc1ccc(N=NN(C)C)cc1,T/C,[25],113 % of control
same,T/C,[26],115 % of control
same,T/C,[11],106 % of control
